From the NIST ThermoML archive (doi:10.1016/j.tca.2004.08.001)

Legend:
[1] = refractive index (Na D-line) (dimensionless); xn = mol fraction of the nth substance listed; conditions: 303.15 K, 101.3 kPa, Liquid, Standard Abbe refractometry
[2] = xn = mol fraction of the nth substance listed; conditions: 303.15 K, 101.3 kPa, Liquid; for speed of sound: Linear variable-path acoustic interferometer
[3] = 101.33 kPa, Liquid; for speed of sound: Linear variable-path acoustic interferometer
[4] = refractive index (Na D-line) (dimensionless); conditions: 101.33 kPa, Liquid, Standard Abbe refractometry

ClC(Cl)Cl [trichloromethane] + C1CCOC1
Conditions | mass density, [2] [kg/m3] | refractive index, [1] | speed of sound, [2] [m/s] | viscosity, [2] [mPa·s]
x2 = 0.1023 | 1410.89 | 1.438 | 986 | 0.5307
x2 = 0.2085 | 1349.01 | 1.4346 | 1006 | 0.5467
x2 = 0.3045 | 1292.84 | 1.4315 | 1024 | 0.5566
x2 = 0.4278 | 1220.11 | 1.4273 | 1051 | 0.559
x2 = 0.5003 | 1176.98 | 1.4251 | 1070 | 0.558
x2 = 0.6047 | 1114.67 | 1.421 | 1102 | 0.5445
x2 = 0.6976 | 1058.96 | 1.4168 | 1133 | 0.5245
x2 = 0.8077 | 992.59 | 1.4121 | 1174 | 0.4955
x2 = 0.8921 | 941.69 | 1.4079 | 1208 | 0.4676

CCCCOC(C)=O [butyl ethanoate] + C1CCOC1
Conditions | mass density, [2] [kg/m3] | refractive index, [1] | speed of sound, [2] [m/s] | viscosity, [2] [mPa·s]
x2 = 0.1033 | 871.17 | 1.3911 | 1177 | 0.6261
x2 = 0.1989 | 871.58 | 1.3924 | 1182 | 0.6085
x2 = 0.3041 | 872.04 | 1.3941 | 1188 | 0.5892
x2 = 0.3995 | 872.51 | 1.3954 | 1194 | 0.5762
x2 = 0.4967 | 873.01 | 1.397 | 1201 | 0.5573
x2 = 0.6013 | 873.59 | 1.3979 | 1210 | 0.5346
x2 = 0.6979 | 874.18 | 1.3991 | 1219 | 0.5107
x2 = 0.7978 | 874.96 | 1.4005 | 1229 | 0.4893
x2 = 0.8999 | 875.79 | 1.4018 | 1241 | 0.4644

ClC(Cl)(Cl)Cl [tetrachloromethane]
303.15 K
Conditions | mass density [kg/m3] | refractive index | speed of sound [m/s] | viscosity [mPa·s]
[3] | 1574.82 | – | 905 | 0.8441
[4] | – | 1.4555 | – | –

ClC(Cl)(Cl)Cl [tetrachloromethane] + C1CCOC1
Conditions | mass density, [2] [kg/m3] | refractive index, [1] | speed of sound, [2] [m/s] | viscosity, [2] [mPa·s]
x2 = 0.1068 | 1513.72 | 1.4519 | 932 | 0.8152
x2 = 0.2017 | 1457.18 | 1.4486 | 955 | 0.788
x2 = 0.3004 | 1395.97 | 1.4451 | 982 | 0.758
x2 = 0.396 | 1334.07 | 1.4409 | 1008 | 0.721
x2 = 0.503 | 1261.58 | 1.4357 | 1042 | 0.6782
x2 = 0.6 | 1192.83 | 1.4304 | 1074 | 0.6359
x2 = 0.6923 | 1124.71 | 1.4247 | 1109 | 0.5916
x2 = 0.7949 | 1045.62 | 1.4182 | 1152 | 0.5453
x2 = 0.8889 | 969.98 | 1.4116 | 1196 | 0.4962

CCCCOC(C)=O [butyl ethanoate]
303.15 K
Conditions | mass density [kg/m3] | refractive index | speed of sound [m/s] | viscosity [mPa·s]
[3] | 870.8 | – | 1172 | 0.6453
[4] | – | 1.3896 | – | –

COC(C)=O [methyl ethanoate] + C1CCOC1
Conditions | mass density, [2] [kg/m3] | refractive index, [1] | speed of sound, [2] [m/s] | viscosity, [2] [mPa·s]
x2 = 0.1028 | 915.9 | 1.3649 | 1151 | 0.3512
x2 = 0.3022 | 906.64 | 1.3748 | 1178 | 0.3672
x2 = 0.5035 | 897.56 | 1.3847 | 1204 | 0.3841
x2 = 0.693 | 889.35 | 1.3927 | 1226 | 0.4035
x2 = 0.8918 | 881.07 | 1.4008 | 1246 | 0.4251

CCCCCOC(C)=O [pentyl ethanoate] + C1CCOC1
Conditions | mass density, [2] [kg/m3] | refractive index, [1] | speed of sound, [2] [m/s] | viscosity, [2] [mPa·s]
x2 = 0.1067 | 867.69 | 1.3967 | 1198 | 0.7426
x2 = 0.298 | 868.75 | 1.3978 | 1203 | 0.7005
x2 = 0.4997 | 870.25 | 1.3992 | 1212 | 0.6373
x2 = 0.6997 | 872.25 | 1.4005 | 1224 | 0.5686
x2 = 0.9027 | 875 | 1.4021 | 1242 | 0.4829

CCCCCCCl [1-chlorohexane]
Conditions | mass density, [3] [kg/m3] | refractive index, [4] | speed of sound, [3] [m/s] | viscosity, [3] [mPa·s]
298.15 K | 873.47 | 1.4197 | – | –
303.15 K | 868.78 | 1.4168 | 1184 | 0.6544

CCCCCOC(C)=O [pentyl ethanoate]
303.15 K
Conditions | mass density [kg/m3] | refractive index | speed of sound [m/s] | viscosity [mPa·s]
[3] | 867.2 | – | 1197 | 0.7573
[4] | – | 1.3961 | – | –

CCOC(C)=O [ethyl acetate]
303.15 K
Conditions | mass density [kg/m3] | refractive index | speed of sound [m/s] | viscosity [mPa·s]
[3] | 888.55 | – | 1117 | 0.4043
[4] | – | 1.3664 | – | –
